Measurements: PMC5515844, “A new Prenylated Flavonoid induces G0/G1 arrest and apoptosis through p38/JNK MAPK pathways in Human Hepatocellular Carcinoma cells” (Scientific Reports, 2017)

Experiments:
[1] = test system: cyclin D1, cyclin E1, CDK2, CDK4, cleaved-caspase 3, PARP, p38, JNK, ERK in Hep3B cells; test: Western blotting analysis; format: cell-based, human
Experimental: (§1) Cells that after treatment were harvested and lysed by radio-immunoprecipitation assay (RIPA) buffer containing protease inhibitor (PMSF, 1 mM) on ice for 30 min. Cells lysates were centrifuged at 12,000 g for 15 min at 4 °C and following the protein concentration in the supernatant was determined using a BCA protein assay kit (Thermo Scientific, Waltham, USA), then cell extracts were added SDS-PAGE sample loading buffer and denatured at 100 °C for 10 min. Equal amount of protein (30 μg) were separated on a 8–15% SDS-PAGE and transferred onto PVDF membranes (0.2 μm, Millipore) using an electroblotting apparatus (Bio-Rad). The membranes were blocked with 5% milk in PBS-T (PBS containing 0.1% Tween 20) for 2 h at room temperature and incubated with primary antibodies at 4 °C overnight. After washed three times with PBS-T, the membranes were incubated with horseradish peroxi-dase (HRP)-conjugated secondary antibody (1:5,000) at room temperature for 2 h, then washed again, and the immunoreactive bands were detected using ECL reagents (ThermoFisher, Waltham, MA).

[2] = test system: cyclin D1, cyclin E1, CDK2, CDK4, cleaved-caspase 3, PARP, p38, JNK, ERK in HepG2 cells; test: Western blotting analysis; format: cell-based, human
Experimental: as §1

LO2 = test: MTT cytotoxicity assay, normal hepatic cells; format: cell-based; conditions: mean ± SD
Experimental: (§2) HepG2 and Hep3B (human hepatoma cells), Bcap37 and MCF-7 (human breast cancer cells), TE-1 (human esophageal cancer cells), A549 (human lung carcinoma cells), U251 and U87 (human glioma cells), were cultured in Dulbecco’s modified Eagle’s medium (DMEM) supplemented with 10% fetal bovine serum (FBS) and 1% penicillin/streptomycin (10000 U/mL penicillin, 10000 μg/ml streptomycin). SH-SY5Y (human neuroblastoma cells), LO2 (human normal liver cell) were grown in RPMI 1640 containing 10% FBS and 100 µg/ml penicillin, 100 µg/ml streptomycin. HepG2, Hep3B, MCF-7, TE-1, A549, U87, U251 and SHSY5Y cells were obtained from the American Type Culture Collection (Manassas, VA, USA). Bcap37 and LO2 cells were purchased from the Cell Bank of Chinese Academy of Sciences (Shanghai, China). All cells were incubated in a humidified atmosphere containing 5% CO2 at 37 °C.
(§3) Cells seeded in 96-well plates with 5 × 10^3 cells/well were adhered overnight and incubated with vehicle control (DMSO) or diverse concentrations of compounds for 48 h. After treatment, 20 μL of MTT (5 mg/mL) was added to each well and incubated for another 4 h at 37 °C. Then, 150 μL of DMSO/well was appended after removed the supernatant to dissolve the formed purple formazan crystals and the color absorbance was measured at 490 nm using a microplate reader (Molecular Devices, Thermo, CA, USA). The inhibition rate (%) was calculated as (A490(control) − A490(drug groups))/(A490(control) − A490(blank)) × 100 and the value of IC50 (the concentration that caused 50% inhibition of cell viability) was determined using SPSS 20.0. This experiment was measured in triplicate, independently.

U251 = test: MTT cytotoxicity assay; format: cell-based; conditions: Homo sapiens, U-251, 48 h, mean ± SD
Experimental: as §2, §3

TE-1 = test: MTT cytotoxicity assay; format: cell-based; conditions: Homo sapiens, 48 h, mean ± SD
Experimental: as §2, §3

A549 = test: MTT cytotoxicity assay; format: cell-based; conditions: Homo sapiens, 48 h, mean ± SD
Experimental: as §2, §3

SH-SY5Y = test: MTT cytotoxicity assay; format: cell-based; conditions: Homo sapiens, 48 h, mean ± SD
Experimental: as §2, §3

U87 = test: MTT cytotoxicity assay; format: cell-based; conditions: Homo sapiens, U-87 MG, 48 h, mean ± SD
Experimental: as §2, §3

MCF-7 = test: MTT cytotoxicity assay; format: cell-based; conditions: Homo sapiens, MCF7, 48 h, mean ± SD
Experimental: as §2, §3

Bcap37 = test: MTT cytotoxicity assay; format: cell-based; conditions: Homo sapiens, 48 h, mean ± SD
Experimental: as §2, §3

## COc1c(-c2ccc(O)c(CC=C(C)C)c2)oc2c(CC=C(C)C)c(O)cc(O)c2c1=O [Compound 1, daphnegiravone D]
[1]
  expression of cyclin D1: not significantly changed
  phosphorylated status of ERK: no distinct change
[1]; 48 h
  phosphorylation level of p38: markedly increased
[1]; 48 h, dose-dependent
  levels of cleaved-caspase 3 and -PARP: increased
[1]; dose-dependent
  level of phosphorylated JNK: dramatically reduced
  levels of cyclin E1, CDK2 and CDK4: decreased
[2]; HepG2
  expression of cyclin D1: not significantly changed
  phosphorylated status of ERK: no distinct change
[2]; HepG2, 48 h
  phosphorylation level of p38: markedly increased
[2]; HepG2, 48 h, dose-dependent
  levels of cleaved-caspase 3 and -PARP: increased
[2]; HepG2, dose-dependent
  level of phosphorylated JNK: dramatically reduced
  levels of cyclin E1, CDK2 and CDK4: decreased
LO2; 48 h, normal human hepatic cells
  IC50: 45.1 ± 3.09 µM
LO2; Homo sapiens, L02, 48 h
  IC50: ~45 µM
U251
  IC50: 33.4 ± 3.03 µM
TE-1
  IC50: 19.3 ± 2.3 µM
A549
  IC50: 21.8 ± 1.34 µM
SH-SY5Y
  IC50: 39.1 ± 3.67 µM
U87
  IC50: 35.1 ± 3.97 µM
MCF-7
  IC50: 22.3 ± 2.18 µM
Bcap37
  IC50: 28 ± 1.94 µM
